In patent US20160229835A1, “NOVEL PYRIDYLOXYACETYL TETRAHYDROISOQUINOLINE COMPOUNDS USEFUL AS NAMPT INHIBITORS” (ELI LILLY AND COMPANY, priority 2013, published 2016):

Columns and labels:
[1] = tested on: A2780 Tumor Xenografts; assay: LC-MS Analysis of NAD+ in A2780 Tumor Xenografts; assay type: in vivo, mice; conditions: oral gavage
Method: (§1) The purpose of this assay is to measure effects of NAMPT inhibitors on NAD^+ formation in cancer cells. LC-MS analysis of NAD^+ metabolites: nicotinamide mononucleotide (NMN), NAD^+, reduced nicotinamide adenine dinucleotide (NADH), and nicotinamide adenine dinucleotide phosphate (NADP) is performed on an HPLC system coupled to a Thermo Quantum Ultra triple quadrupole mass spectrometer operated in positive heated electrospray mode with selected reaction monitoring detection. For cell extracts, 50 μL of extract and 10 μL of 10 μM internal standard (IS) solution is transferred to a 96-well plate, dried under nitrogen and reconstituted in 50 μL of water. For tissue extracts, 20 μL of extract and 10 μL of IS solution are dried and reconstituted in 50 μL water. The IS solution contains 10 μM nicotinamide-d4 (C/D/N Isotopes), nicotinic acid-d4 (C/D/N Isotopes), nicotinamide mononucleotide-d4 (prepared by custom synthesis) and nicotinamide 1,N^6-ethenoadenine dinucleotide in methanol. The metabolites are separated on a Waters XBRIDGE™ Amide (2.1×50 mm, 3 μm) with an injection volume of 10 μL and a flow rate of 1 mL/minute using 10 mM ammonium acetate in 95% acetonitrile for mobile phase A and 10 mM ammonium acetate in 50% acetonitrile for mobile phase B. The gradient is as follows: 0 minutes, 0% B; 2.5 minutes, 70% B; 2.51 minutes, 100% B; 2.8 minutes, 100% B; 2.81 minutes, 0% B, 3.6 minutes, 0% B.
(§2) The purpose of this assay is to measure the effects of NAMPT inhibitors on NAD^+ levels in vivo as described above. Tumors are grown and treated as described below for efficacy in xenograft tumor models below (7 animals/group). Each compound is also formulated as described for efficacy in xenograft tumor models below. Vehicle is 20% of CAPTISOL® and 25 mM of phosphate buffer, pH 2 without compound. After the completion of the treatment, tumor tissues (˜50 mg each) are homogenized in an ice cold extraction buffer (1 mL of 70% methanol/water; HPLC grade for 2 minutes in a tissue lyser II (QIAGEN™) at frequency 30 Hz. The resulting preparations are centrifuged at 14000×g for 6 minutes. The supernatant fractions (500 μL each) are collected and extracted with chloroform (0.5 mL). The aqueous fractions (0.3 mL each) are collected into a 96-well plate ready for LC-MS analysis. The LC-MS analysis of NAD metabolites is performed as described above.
(§3) The purpose of this assay is to measure reduction in tumor volume in response to test compound administration. A2780 and NCI-H1155 (NSCLC) cells are grown as described above for IVTI studies. Cells are harvested and injected subcutaneously onto the rear flank of nude mice. When tumors are established (7-21 days after implant), animals are randomized and grouped into control and test groups (7 animals/group). The test compound is formulated in 20% of CAPTISOL® and 25 mM of phosphate buffer, pH 2. Test compound and vehicle (20% of CAPTISOL® and 25 mM of phosphate buffer, pH 2 without compound) are administered by oral gavage. Tumor response is determined by tumor volume measurement (caliper) performed twice a week during the course of treatment and reported as percent of tumor volume of each treatment group divided by tumor volume of the vehicle control group. […]

[2] = tested on: NCI-H1155 Tumor Xenografts; assay: LC-MS Analysis of NAD+ in NCI-H1155 Tumor Xenografts; assay type: in vivo, mice; conditions: oral gavage
Method: as §1, §2, §3

[3] = tested on: Calu-6 (lung cancer) cells; assay: Cell Viability Assay, Calu-6; assay type: cell-based; conditions: Homo sapiens, 72 hours
Method: The purpose of this assay is to measure the ability of a compound to reduce viability of different cancer cells dependent on the NAMPT-mediated NAD^+ formation in vitro. HCC1937 (breast cancer) cells are cultured in RPMI-1640 supplemented with 10% FBS. Calu-6 (lung cancer) cells and MCF-7 (breast cancer) cells are cultured in Minimum Essential Medium (MEM) (Gibco11095) supplemented with 1 mM sodium pyruvate (Gibco 11360), 1% Non-Essential Amino Acids Solution (100×; Gibco 11140) and 10% FBS. NCI-H1155 (lung cancer) cells are cultured in Dulbecco's Modified Eagle Medium (DMEM) (Gibco 11965) with 10% FBS. […] Cell viability is analyzed by using an assay kit (CYTOTOX-GLO™ Cytotoxicity Assay kit, Promega) according to the manufacturer's instructions as follows. […] Luminescence is measured using a Wallac Victor3 V 1420 Multilabel Counter (Perkin Elmer), referred to as dead cell luminescence. […] After the plate is incubated at room temperature for 15 minutes, luminescence is measured using the plate reader, referred to as total luminescence. Viable cell luminescence (CPS) is calculated by subtracting the dead cell luminescence from the total luminescence Inhibition of cell viability is calculated based on the equation as follows:
Inhibition (%)=(CPSnegative−CPSsample)/(CPSnegative−CPSpositive)*100 where CPS is the luminescence of viable cells.

| Compound | NAD levels (pmol/mg tissue) ([1]; 5 mg/kg (BID)) | NAD levels (pmol/mg tissue) ([1]; 10 mg/kg (BID)) | NAD levels (pmol/mg tissue) ([1]; 20 mg/kg (BID)) | NAD levels (pmol/mg tissue) ([2]; 2.5 mg/kg (BID)) | NAD levels (pmol/mg tissue) ([2]; 5 mg/kg (BID)) | NAD levels (pmol/mg tissue) ([2]; 10 mg/kg (BID)) | NAD levels (pmol/mg tissue) ([2]; 20 mg/kg (BID)) | IC50 [3] [nM] | NAD levels (pmol/mg tissue) ([1]; 8 mg/kg (BID)) | NAD levels (pmol/mg tissue) ([1]; 16 mg/kg (BID)) | NAD levels (pmol/mg tissue) ([1]; 32 mg/kg (BID)) | NAD levels (pmol/mg tissue) ([2]; 8 mg/kg (BID)) | NAD levels (pmol/mg tissue) ([2]; 16 mg/kg (BID)) | NAD levels (pmol/mg tissue) ([2]; 32 mg/kg (BID)) |
| --- | --- | --- | --- | --- | --- | --- | --- | --- | --- | --- | --- | --- | --- | --- |
| CC(C)(O)CS(=O)(=O)Nc1ccc2c(c1)CCN(C(=O)COc1cccnc1)C2 [Example 1, 2-Hydroxy-2-methyl-N-[2-[2-(3-pyridyloxy)acetyl]-3,4-dihydro-1H-isoquinolin-6-yl]propane-1-sulfonamide] | 5.04 | 2.55 | 3.29 | 11.38 | 7.48 | 3.63 | 1.82 | 49 ± 8 | – | – | – | – | – | – |
| COCCS(=O)(=O)Nc1ccc2c(c1)CCN(C(=O)COc1cccnc1)C2 [Example 2, 2-Methoxy-N-[2-[2-(3-pyridyloxy)acetyl]-3,4-dihydro-1H-isoquinolin-6-yl]ethanesulfonamide] | – | – | – | – | – | – | – | 121 ± 29 | 3.97 | 6.52 | 6.38 | 5.19 | 1.98 | 0.84 |
